In patent publication US20240116946A1 (Gilead Sciences, Inc., priority 2022, published 2024):
Read-outs that look alike come from different tables or passages of the source.

Tests used:
SARS-CoV-2-NLuc = assay: microbe, parasite or virus in culture; assay type: cell-based, SARS Coronavirus 2
[1] = biological target: recombinant SARS-CoV-2 Main protease (Mpro) (Severe acute respiratory syndrome coronavirus 2 (2019-nCoV) (SARS-CoV-2), UniProt P0DTD1); assay: Cov Mpro Biochemical IC50 Assay; settings: read-out: MPro IC50
[2] = Severe acute respiratory syndrome coronavirus, 48 h, read-out: MPro EC50
[3] = recombinant SARS-CoV-2 Mpro, fluorogenic peptide substrate
[4] = recombinant SARS-CoV-2 Mpro 7.5 nM, fluorogenic peptide substrate 40 μM
[5] = Severe acute respiratory syndrome coronavirus, 48 h; read-out: MPro EC50

SMILES | EC50 (SARS-CoV-2-NLuc; [2]) [nM] | IC50 [1, 3] [nM] | IC50 [1, 4] [nM] | EC50 (SARS-CoV-2-NLuc; [5]) [nM] | EC50 (SARS-CoV-2-NLuc; read-out: MPro EC50) [nM]
COC(=O)[C@H]1C[C@@H]1c1cncc(-n2c(=O)[nH]c3cc(-c4ccccc4Cl)sc3c2=O)c1C [Example 136] | 11100 | > 50000 |  |  | 
COc1cc(-c2cc3[nH]c(=O)n(-c4cncc5[nH]nc(C(F)(F)F)c45)c(=O)c3s2)c(Cl)cc1F [Example 1045, 6-(2-chloro-4-fluoro-5-methoxyphenyl)-3-(3-(trifluoromethyl)-1H-pyrazolo[3,4-c]pyridin-4-yl)thieno[3,2-d]pyrimidine-2,4(1H,3H)-dione] | > 1000 |  | 141 |  | 
COc1ccc(C#N)c(-c2cc3[nH]c(=O)n(-c4cncc5c4OCCC5)c(=O)c3s2)c1 [Example 587] | 117 |  | 27.9 |  | 
COc1cc(-c2cc3c(s2)c(=O)n(-c2cncc4cnn(C)c24)c(=O)n3CC#N)c(Cl)cc1F [Example 641, 2-[6-(2-chloro-4-fluoro-5-methoxy-phenyl)-3-(1-methylpyrazolo[4,3-c]pyridin-7-yl)-2,4-dioxo-thieno[3,2-d]pyrimidin-1-yl]acetonitrile] |  |  | 2.2 | < 4.42 | 
Cn1ncc2cncc(-n3c(=O)c4sc(-c5cc(F)c(F)cc5Cl)cc4n(CCC#N)c3=O)c21 (single isomer, unassigned) [Example 1076, 3-[6-(2-chloro-4,5-difluoro-phenyl)-3-(1-methylpyrazolo[4,3-c]pyridin-7-yl)-2,4-dioxo-thieno[3,2-d]pyrimidin-1-yl]propanenitrile] |  |  | 3.64 |  | 10.9
O=c1[nH]c2cc(-c3ccccc3Cl)ccc2c(=O)n1-c1cnccc1N1CCNCC1 [Example 116, 7-(2-chlorophenyl)-3-(4-(piperazin-1-yl)pyridin-3-yl)quinazoline-2,4(1H,3H)-dione] |  | 797 |  | 3200 | 
O=c1[nH]c2cc(-c3ccccc3Cl)sc2c(=O)n1-c1cncc2ccsc12 [Example 479, 6-(2-chlorophenyl)-3-thieno[3,2-c]pyridin-7-yl-1H-thieno[3,2-d]pyrimidine-2,4-dione] | 20.9 |  | 16.7 |  | 
COc1cc(-c2cc3c(s2)c(=O)n(-c2cncc4ccccc24)c(=O)n3CC2(C#N)CC2)c(Cl)cc1F (single isomer, unassigned) [Example 635, 1-[[6-(2-chloro-4-fluoro-5-methoxy-phenyl)-3-(4-isoquinolyl)-2,4-dioxo-thieno[3,2-d]pyrimidin-1-yl]methyl]cyclopropanecarbonitrile] |  |  | 3.26 |  | 1.78
COc1ccc2cncc(-n3c(=O)[nH]c4cc(-c5c(Cl)cccc5-c5cn6ncnc6c6c5CCC6)sc4c3=O)c2c1 [Example 564] | 52.5 |  | 14.6 |  | 
COc1cc(-c2cc3[nH]c(=O)n(-c4cncc5ccccc45)c(=O)c3cc2OC)c(Cl)cc1F (single isomer, unassigned) [Example 1054, 7-(2-chloro-4-fluoro-5-methoxyphenyl)-3-(isoquinolin-4-yl)-6-methoxyquinazoline-2,4(1H,3H)-dione] |  |  | 34.6 |  | 15.5
O=c1[nH]c2cc(-c3ccccc3Cl)ccc2c(=O)n1-c1cnccc1C(F)(F)F [Example 125] | 17500 | 22500 |  |  | 
COc1cc(-c2cc3c(s2)c(=O)n(-c2cncc4ccccc24)c(=O)n3CC#N)c(Cl)cc1F (single isomer, unassigned) [Example 633, 2-[6-(2-chloro-4-fluoro-5-methoxy-phenyl)-3-(4-isoquinolyl)-2,4-dioxo-thieno[3,2-d]pyrimidin-1-yl]acetonitrile] |  |  | 3.22 |  | 3.29
COc1cnc(C)c(-c2cc3[nH]c(=O)n(-c4cncc5ccccc45)c(=O)c3s2)c1 [Example 718] | 371 |  | 106 |  | 
Cn1ncc(-c2cccc(Cl)c2-c2cc3[nH]c(=O)n(-c4cncc5ccccc45)c(=O)c3s2)c1C(F)(F)F [Example 526] | 8.34 |  | 15.7 |  | 
CN1C(=O)COc2ccc(-c3cccc(Cl)c3-c3ccc4c(=O)n(-c5cncc6ccccc56)c(=O)[nH]c4c3)cc21 [Example 196] | 15.6 | 17.4 |  |  | 
COc1cnc(C#N)c(-c2cc3[nH]c(=O)n(-c4cncc5cccc(F)c45)c(=O)c3s2)c1 [Example 761] |  |  | 45.6 | 398 | 
COc1cc(-c2cc3c(s2)c(=O)n(-c2cncc4nc(C)n(C5CC5)c24)c(=O)n3CCC#N)c(Cl)cc1F [Example 990] | 14.1 |  | 4.1 |  | 
COc1ccc(C#N)c(-c2cc3[nH]c(=O)n(-c4cncc5ccccc45)c(=O)c3s2)c1 (single isomer, unassigned) [Example 554, 2-(3-(isoquinolin-4-yl)-2,4-dioxo-1,2,3,4-tetrahydrothieno[3,2-d]pyrimidin-6-yl)-4-methoxybenzonitrile] |  |  | 3.88 |  | 14.9

SMILES | EC50 (SARS-CoV-2-NLuc; [2]) [nM] | IC50 [1, 3] [nM] | IC50 [1, 4] [nM] | EC50 (SARS-CoV-2-NLuc; [5]) [nM] | EC50 (SARS-CoV-2-NLuc; read-out: MPro EC50) [nM]
O=c1[nH]c2cc(-c3cccnc3)ccc2c(=O)n1-c1cncc2ccccc12 [Example 43] | > 50000 | 3120 |  |  | 
Cc1ccccc1-c1ccc2c(=O)n(-c3cncc4ccccc34)c(=O)[nH]c2c1 [Example 36] | 619 | 388 |  |  | 
COc1cc(-c2cc3[nH]c(=O)n(-c4cncc5cccc(F)c45)c(=O)c3cc2OC)c(C#N)cc1F [Example 682] | 33 |  | 20.2 |  | 
COc1cc(-c2cc3[nH]c(=O)n(-c4cncc5cccc(C)c45)c(=O)c3s2)c(Cl)cc1F (single isomer, unassigned) [Example 996, 6-(2-chloro-4-fluoro-5-methoxyphenyl)-3-(5-methylisoquinolin-4-yl)thieno[3,2-d]pyrimidine-2,4(1H,3H)-dione] |  |  | 6390 |  | 1530
COc1cc(-c2cc3[nH]c(=O)n(-c4cncc5nc(C)sc45)c(=O)c3s2)c(Cl)cc1F [Example 652] | 48.1 |  | 22.5 |  | 
N#CCCn1c(=O)n(-c2cccnc2)c(=O)c2sc(-c3ccccc3C#N)cc21 [Example 801] |  |  | 60.6 | 231 | 
Cc1cncc(-n2c(=O)[nH]c3cc(-c4ccccc4Cl)sc3c2=O)c1OCC(F)(F)F [Example 372] | 176 | 77.8 |  |  | 
Cc1noc(C)c1-c1cc2c(s1)c(=O)n(-c1cncc3cnn(C)c13)c(=O)n2CCC#N [Example 930] | > 1000 |  | 541 |  | 
Cn1cc2ccc(-n3c(=O)n(-c4cncc5ccccc45)c(=O)c4sc(-c5ccccc5Cl)cc43)cc2n1 [Example 152, 6-(2-chlorophenyl)-3-(isoquinolin-4-yl)-1-(2-methyl-2H-indazol-6-yl)thieno[3,2-d]pyrimidine-2,4(1H,3H)-dione] | 149 | 85.8 |  |  | 
COc1cc(-c2cccc(Cl)c2-c2ccc3c(=O)n(-c4cncc5ccccc45)c(=O)[nH]c3c2)cn2ncnc12 [Example 143] |  | 10.8 |  | 79.2 | 
COc1cnc(Cl)c(-c2cc3c(s2)c(=O)n(-c2cncc(C(F)F)c2)c(=O)n3CCC#N)c1 [Example 889] |  |  | 14.2 | 64.8 | 
N#Cc1ccncc1-c1cc2[nH]c(=O)n(-c3cncc4ccccc34)c(=O)c2s1 [Example 535] | 432 |  | 39.6 |  | 
COc1cc(-c2cc3c(s2)c(=O)n(-c2cncc4nc(C)n(C)c24)c(=O)n3CCC#N)c(Cl)cc1F (single isomer, unassigned) [Example 970, 3-(6-(2-chloro-4-fluoro-5-methoxyphenyl)-3-(1,2-dimethyl-1H-imidazo[4,5-c]pyridin-7-yl)-2,4-dioxo-3,4-dihydrothieno[3,2-d]pyrimidin-1(2H)-yl)propanenitrile] |  |  | 3.96 |  | 18.9
Cn1nncc1-c1cccc(Cl)c1-c1ccc2c(=O)n(-c3cncc4ccccc34)c(=O)[nH]c2c1 [Example 567, 7-[2-chloro-6-(3-methyltriazol-4-yl)phenyl]-3-(4-isoquinolyl)-1H-quinazoline-2,4-dione] |  |  | 50.9 |  | 228
Cn1ncc2cncc(-n3c(=O)c4sc(-c5cc(F)ccc5Cl)cc4n(CC#N)c3=O)c21 [Example 664] | 11.4 |  | 5.24 |  | 
O=c1[nH]c2c(F)c(-c3ccccc3Cl)ccc2c(=O)n1-c1cncc2ccccc12 [Example 82] | 2860 | 1370 |  |  | 
O=c1[nH]c2cc(-c3ccccc3Cl)ccc2c(=O)n1-c1cncc2ccccc12 (single isomer, unassigned) [Example 104, 7-(2-chlorophenyl)-3-(isoquinolin-4-yl)quinazoline-2,4(1H,3H)-dione] |  | 6790 |  |  | 3920
COc1cc(-c2cc3c(s2)c(=O)n(-c2cncc4c2c(C)nn4C)c(=O)n3CCC#N)c(Cl)cc1F (single isomer, unassigned) [Example 1044, 3-(6-(2-chloro-4-fluoro-5-methoxyphenyl)-3-(1,3-dimethyl-1H-pyrazolo[3,4-c]pyridin-4-yl)-2,4-dioxo-3,4-dihydrothieno[3,2-d]pyrimidin-1(2H)-yl)propanenitrile] |  |  | 3.55 |  | 3.21
